Results: ChEMBL document CHEMBL1157919, “Optimization of 7-alkene-3-quinolinecarbonitriles as Src kinase inhibitors” (Bioorg Med Chem Lett, 2010)
Blank lines part the entries; values can stand above or below the compound they belong to.

Assays:
[1] = biological target: T1, Proto-oncogene tyrosine-protein kinase Src (Homo sapiens, UniProt P12931)
Description: Inhibition of human recombinant Src after 70 mins by FRET assay

[2] = Plasma concentration in nude mouse at 50 mg/kg, po after 24 hrs; format: ADME, organism-based; set-up: dose 50 mg/kg, route oral
HT-29 = experiment: In vivo antitumor activity against human HT-29 cells at 150 mg/kg, po qd for 14 days measured on day 21; format: functional
[3] = Half life in rat liver microsomes; format: ADME, Microsome
[4] = biological target: T1, Proto-oncogene tyrosine-protein kinase Src; experiment: Inhibition of human recombinant Src at 10 uM after 70 mins by FRET assay
[5] = Half life in nude mouse microsomes; format: ADME, Microsome
[6] = Half life in human microsomes; format: ADME, Microsome
[7] = biological target: RAC-alpha serine/threonine-protein kinase (Homo sapiens, UniProt P31749); experiment: Inhibition of AKT
Chain of RAC-alpha serine/threonine-protein kinase (P31749 whole entry): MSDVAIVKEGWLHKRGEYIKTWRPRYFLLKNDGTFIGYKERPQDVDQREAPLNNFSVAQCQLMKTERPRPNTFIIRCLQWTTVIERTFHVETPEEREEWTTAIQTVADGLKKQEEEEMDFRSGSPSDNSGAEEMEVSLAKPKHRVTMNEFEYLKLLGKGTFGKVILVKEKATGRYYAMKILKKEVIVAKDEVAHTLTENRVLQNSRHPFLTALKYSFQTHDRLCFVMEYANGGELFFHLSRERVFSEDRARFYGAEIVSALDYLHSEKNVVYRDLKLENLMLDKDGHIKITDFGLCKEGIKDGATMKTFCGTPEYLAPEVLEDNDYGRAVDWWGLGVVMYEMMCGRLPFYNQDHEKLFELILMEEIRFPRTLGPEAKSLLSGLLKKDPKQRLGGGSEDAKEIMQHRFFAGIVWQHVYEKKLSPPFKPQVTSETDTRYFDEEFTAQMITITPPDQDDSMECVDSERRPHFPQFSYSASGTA

[8] = biological target: Mitogen-activated protein kinase kinase kinase 8 (Homo sapiens, UniProt P41279); experiment: Inhibition of TPL2
Chain of Mitogen-activated protein kinase kinase kinase 8 (P41279 whole entry): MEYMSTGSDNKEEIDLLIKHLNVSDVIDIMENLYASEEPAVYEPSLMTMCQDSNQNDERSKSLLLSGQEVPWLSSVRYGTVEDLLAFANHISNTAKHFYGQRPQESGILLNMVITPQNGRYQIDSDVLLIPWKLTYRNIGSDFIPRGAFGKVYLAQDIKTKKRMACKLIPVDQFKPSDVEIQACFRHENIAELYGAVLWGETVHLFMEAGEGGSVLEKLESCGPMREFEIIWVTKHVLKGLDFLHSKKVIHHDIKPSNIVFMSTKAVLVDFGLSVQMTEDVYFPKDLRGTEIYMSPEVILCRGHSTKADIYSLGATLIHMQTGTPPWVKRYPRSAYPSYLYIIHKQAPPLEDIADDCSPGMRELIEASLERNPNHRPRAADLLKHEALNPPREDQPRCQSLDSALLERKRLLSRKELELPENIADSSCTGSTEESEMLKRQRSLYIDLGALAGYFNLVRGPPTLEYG

[9] = Inhibition of IKK
[10] = biological target: Tyrosine-protein kinase ABL1 (Homo sapiens, UniProt P00519); experiment: Inhibition of Abl
Chain of Tyrosine-protein kinase ABL1 (P00519 whole entry): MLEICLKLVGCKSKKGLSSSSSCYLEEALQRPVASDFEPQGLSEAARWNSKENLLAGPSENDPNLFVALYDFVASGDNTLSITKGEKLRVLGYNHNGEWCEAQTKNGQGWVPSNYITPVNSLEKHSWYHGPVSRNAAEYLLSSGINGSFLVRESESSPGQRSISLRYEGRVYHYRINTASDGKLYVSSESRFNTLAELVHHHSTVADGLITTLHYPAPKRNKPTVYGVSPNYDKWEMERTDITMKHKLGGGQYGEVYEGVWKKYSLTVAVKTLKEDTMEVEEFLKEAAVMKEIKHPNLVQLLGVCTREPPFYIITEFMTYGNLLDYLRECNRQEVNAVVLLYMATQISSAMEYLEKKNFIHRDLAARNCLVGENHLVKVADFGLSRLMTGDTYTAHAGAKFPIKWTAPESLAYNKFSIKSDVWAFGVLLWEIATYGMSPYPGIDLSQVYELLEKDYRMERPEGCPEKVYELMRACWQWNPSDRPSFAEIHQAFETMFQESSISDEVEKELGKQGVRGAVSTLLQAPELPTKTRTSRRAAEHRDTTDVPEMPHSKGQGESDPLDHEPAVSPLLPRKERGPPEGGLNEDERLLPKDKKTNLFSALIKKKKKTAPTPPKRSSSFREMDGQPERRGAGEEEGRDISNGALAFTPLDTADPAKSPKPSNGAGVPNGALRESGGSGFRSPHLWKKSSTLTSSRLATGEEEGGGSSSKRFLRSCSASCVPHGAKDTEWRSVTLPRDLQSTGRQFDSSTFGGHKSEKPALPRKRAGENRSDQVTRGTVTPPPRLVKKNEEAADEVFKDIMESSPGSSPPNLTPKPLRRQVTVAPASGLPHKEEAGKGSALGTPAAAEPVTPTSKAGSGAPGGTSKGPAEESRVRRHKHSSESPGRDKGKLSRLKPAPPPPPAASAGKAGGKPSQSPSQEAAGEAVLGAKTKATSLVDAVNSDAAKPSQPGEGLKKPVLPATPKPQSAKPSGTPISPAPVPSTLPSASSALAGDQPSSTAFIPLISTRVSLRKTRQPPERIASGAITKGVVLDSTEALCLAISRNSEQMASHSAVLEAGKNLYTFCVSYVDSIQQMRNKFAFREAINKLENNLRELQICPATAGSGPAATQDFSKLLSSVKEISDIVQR

[11] = biological target: Serine/threonine-protein kinase mTOR (Homo sapiens, UniProt P42345); experiment: Inhibition of mTOR
[12] = Inhibition of IGFR

T1 sequence (P12931 2-536 limits assumed): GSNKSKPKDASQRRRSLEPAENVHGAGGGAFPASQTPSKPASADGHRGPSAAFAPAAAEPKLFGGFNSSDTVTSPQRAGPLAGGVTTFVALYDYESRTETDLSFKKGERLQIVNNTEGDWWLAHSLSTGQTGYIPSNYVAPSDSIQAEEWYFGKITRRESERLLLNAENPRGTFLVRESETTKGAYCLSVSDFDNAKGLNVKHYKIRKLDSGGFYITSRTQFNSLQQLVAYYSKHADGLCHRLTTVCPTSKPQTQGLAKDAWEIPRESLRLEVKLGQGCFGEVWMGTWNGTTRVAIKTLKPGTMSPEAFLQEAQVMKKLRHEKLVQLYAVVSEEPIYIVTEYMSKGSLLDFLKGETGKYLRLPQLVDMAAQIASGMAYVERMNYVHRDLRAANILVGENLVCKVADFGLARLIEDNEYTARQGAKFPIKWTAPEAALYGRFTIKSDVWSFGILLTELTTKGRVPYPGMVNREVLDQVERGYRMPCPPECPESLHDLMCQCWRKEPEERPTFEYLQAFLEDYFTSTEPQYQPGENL

Compound: COc1cc(Nc2c(C#N)cnc3ccc(/C=C/CCN4CCOCC4)cc23)c(Cl)cc1Cl
IC50 [1]: 340 nM

Compound: N#Cc1cnc2ccc(/C=C/CCN3CCOCC3)cc2c1Nc1ccc(Cl)cc1Cl
IC50 [1]: 1200 nM

Compound: COc1cc(Nc2c(C#N)cnc3cc(/C=C/CCCCCCCCCN4CCOCC4)c(OC)cc23)c(Cl)cc1Cl
IC50 [1]: 130 nM

Compound: COc1cc(Nc2c(C#N)cnc3cc(/C=C/c4cc(CN(C)C)ccn4)c(OC)cc23)c(Cl)cc1Cl
IC50 [1]: 6.8 nM

Compound: COc1cc(Nc2c(C#N)cnc3cc(OCCCN4CCN(C)CC4)c(OC)cc23)c(Cl)cc1Cl [BOSUTINIB]
T/C (HT-29): 0.43
concentration at 24 h [2]: 40 ng/mL

Compound: COc1cc(Nc2c(C#N)cnc3cc(/C=C/CCCCN4CCOCC4)c(OC)cc23)c(Cl)cc1Cl
IC50 [1]: 18 nM

Compound: N#Cc1cnc2cc(/C=C/CCN3CCOCC3)ccc2c1Nc1ccc(Cl)cc1Cl
IC50 [1]: 41 nM

Compound: COc1cc(Nc2c(C#N)cnc3c(/C=C/CCN4CCOCC4)cccc23)c(Cl)cc1Cl
inhibition [4]: 52%

Compound: COc1cc(Nc2c(C#N)cnc3cc(/C=C/CN4CCOCC4)c(OC)cc23)c(Cl)cc1Cl
IC50 [1]: 8.7 nM

Compound: COc1cc(Nc2c(C#N)cnc3cc(/C=C/CCN4CCOCC4)ccc23)c(Cl)cc1Cl
IC50 [1]: 15 nM

The remaining compounds from weak to strong by IC50 [1], led by results:

IC50 [1]: 5.4 nM
Compound: COc1cc(Nc2c(C#N)cnc3cc(/C=C/CCCN4CCOCC4)c(OC)cc23)c(Cl)cc1Cl

IC50 [1]: 4.8 nM
Compound: COc1cc(Nc2c(C#N)cnc3cc(/C=C/CCN4CCOCC4)c(OC)cc23)c(Cl)cc1Cl

IC50 [1]: 3 nM
Compound: COc1cc(Nc2c(C#N)cnc3cc(/C=C/c4cccc(CN(C)C)c4)c(OC)cc23)c(Cl)cc1Cl

IC50 [1]: 2.6 nM
half-life [3]: > 30 min
Compound: COc1cc(Nc2c(C#N)cnc3cc(/C=C/CCN4CCCCC4)c(OC)cc23)c(Cl)cc1Cl

IC50 [1]: 2.5 nM
half-life [3]: > 30 min
Compound: COc1cc(Nc2c(C#N)cnc3cc(/C=C/CCN(C)C)c(OC)cc23)c(Cl)cc1Cl

IC50 [1]: 2.4 nM
concentration at 24 h [2]: 10 ng/mL
Compound: COc1cc(Nc2c(C#N)cnc3cc(/C=C/c4ccc(CN(C)C)cc4)c(OC)cc23)c(Cl)cc1Cl

IC50 [1]: 2.2 nM
concentration at 24 h [2]: 36 ng/mL
Compound: COc1cc(Nc2c(C#N)cnc3cc(/C=C/c4ccc(CN(C)C)cn4)c(OC)cc23)c(Cl)cc1Cl

IC50 [1]: 2.2 nM
concentration at 24 h [2]: 28 ng/mL
Compound: COc1cc(Nc2c(C#N)cnc3cc(/C=C/c4cccc(CN(C)C)n4)c(OC)cc23)c(Cl)cc1Cl

half-life [5]: 33 min
half-life [6]: 11 min
IC50 [7]: > 10000 nM
IC50 [8]: > 10000 nM
IC50 [9]: > 10000 nM
IC50 [1]: 2.1 nM
IC50 [10]: 0.4 nM
IC50 [11]: > 10000 nM
IC50 [12]: > 10000 nM
half-life [3]: 10 min
Compound: COc1cc(Nc2c(C#N)cnc3cc(/C=C/CCN4CCN(C)CC4)c(OC)cc23)c(Cl)cc1Cl
T/C (HT-29): 0.36

IC50 [1]: 1.7 nM
half-life [3]: > 30 min
Compound: CCN1CCN(CC/C=C/c2cc3ncc(C#N)c(Nc4cc(OC)c(Cl)cc4Cl)c3cc2OC)CC1
